Assay results reported in PMC6445228, “Synthesis and biological evaluation of anti-Toxoplasma gondii activity of a novel scaffold of thiazolidinone derivatives” (Journal of Enzyme Inhibition and Medicinal Chemistry, 2017).
pIC50: −log10 of the molar value. Read-outs that look alike come from different tables or passages of the source.

How the values were obtained:
[1] = test system: T. gondii RH-2 F tachyzoites; experiment: Five-day growth inhibition assay (tachyzoite growth, colorimetric); format: cell-based, Toxoplasma gondii; details: 120 h; for pIC50: read-out: IC50, median inhibitory concentration, a measure of tachyzoite inhibition; for IC90: read-out: IC90, concentration at which 90% of the tachyzoite growth is inhibited
Method: (§1) Using published methods[8]^,[19], all of the prepared N-substituted thiazolidinones derivatives were evaluated in vitro for (i) host cell cytotoxicity as well as for the ability to inhibit tachyzoite growth over a period of 5 days (Table 1), for (ii) the ability to inhibit tachyzoite invasion of host cells (Figure 1), and for (iii) the ability to inhibit intracellular tachyzoite replication (Figure 2).
(§2) Compounds were tested for the ability to inhibit in vitro tachyzoite (T. gondii RH-2 F (50839); ATCC, VA) and human foreskin fibroblast (HFF; ATCC) growth for 120 h using a published colorimetric assay[8]^,[19]. Stock solutions of all compounds were 10 mM in DMSO. Serial 0.5 log10 dilutions (320–0.032 μM) of each compound were tested. Data from three separate experiments were analysed and the IC50, IC90, and TD50 calculated using Calcusyn software (Biosoft, Cambridge, UK). The therapeutic index (TI), a measure of specific anti-T. gondii activity, was calculated with the formula shown under Table 1.
We explored the chemical space and the influence on the biological activity of different groups (substituted aromatic and bicyclic rings) at the lactam NH of the core nucleus. […] In the five-day growth inhibition assay, compounds were added only once, just before addition of tachyzoites, and thus were present for multiple cycles, up to 20, of parasite replication.

[2] = test system: extracellular T. gondii tachyzoites invading HFF host cells; experiment: Red/green invasion assay (immunofluorescence); format: cell-based, Toxoplasma gondii; details: 10 μM, 20 min preincubation, 1 h at 37 °C on HFF, vs vehicle, p ≤ .05
Method: Figure 1. Invasion assay of ferrocene-based thiazolidinone derivatives (10 μM). VHL: vehicle (DMSO). *Significant inhibition of tachyzoite invasion (p ≤ .05, two-tailed Students’ t test). **Significant inhibition of tachyzoite attachment (p ≤ .05, two-tailed Students’ t test). Data are compiled from results of three independent experiments.
The ferrocene-based derivatives (10 μM) were examined for activity directly on extracellular tachyzoites using an established immunofluorescence-based red/green invasion assay. This assay measures a compound’s ability to impede the parasite-driven host cell entry of tachyzoites through the host cell plasma membrane. Invaded (intracellular) tachyzoites are labelled green while tachyzoites attached to the surface, but unable to invade, are labelled red. A decrease in the number of invaded tachyzoites relative to vehicle [VHL (DMSO)] is indicative of invasion inhibition. A decrease in the number of invaded plus attached tachyzoites relative to same of VHL is indicative of inhibition of attachment. Data shown are mean values ± SEM of three independent experiments.
We next evaluated the ability of the ferrocene-based derivatives to act directly upon extracellular tachyzoites by using a standard red/green invasion assay. This assay interrogates compounds for inhibition of the first step in host cell infection, i.e. invasion and entry into susceptible cells. In this assay (Figure 1), cell-free purified tachyzoites were incubated with a test compound (10 μM), sulfadiazine (10 μM), or VHL for 20 min at room temperature before being added to HFF host cells. After allowing 1 h at 37 °C for the tachyzoites to attach and invade, the cells were processed by immunofluorescent staining. Extracellular/attached tachyzoites were labelled red while intracellular/penetrated tachyzoites were labelled green.

[3] = test system: human foreskin fibroblast (HFF); experiment: Five-day growth inhibition assay, host cell cytotoxicity; details: 120 h
Method: as §1, §2

[4] = test system: intracellular T. gondii tachyzoites; experiment: Replication assay (immunofluorescence, tachyzoites per parasitophorous vacuole); format: cell-based, Toxoplasma gondii; details: 10 μM, added 2 h after infection, 24 h
Method: Figure 2. Replication assay of ferrocene-based thiazolidinone derivatives (10 μM). VHL: vehicle (DMSO); Tz: tachyzoites. Data are compiled from results of three independent experiments.
This assay measures a compound’s ability to inhibit tachyzoite replication over a period of 24 h. The numbers of parasitophorous vacuoles (PV) in experimentally treated infected cells containing 1, 2, 4, or 8 + tachyzoites/vacuole were enumerated, graphed, and compared to those of the VHL-treated infected cells. Data for each size vacuole are shown as the fraction of the total number of vacuoles counted in 10–15 fields. Data shown were compiled from three independent experiments. A decrease in the number of tachyzoites in a vacuole indicates inhibition of replication. Toxoplasma gondii tachyzoites only replicate within the PV inside the host cell with one cycle of replication taking 6–8 h. […] Consequently, a decrease in the number of intravacuolar tachyzoites relative to that of VHL indicates inhibition of replication. Specifically, predominance, i.e. the largest fraction of the total number, of PVs containing 1 or 2 tachyzoites indicates replication inhibition.
Lastly, the replication assay interrogates a compound’s ability to inhibit an established intracellular Toxoplasma infection over the relatively short period of 24 h (3–4 cycles of replication). […] Likewise, allowance of just one cycle of replication results in a majority of PVs containing just two tachyzoites. However, a predominance of PVs containing eight or more tachyzoites indicates absence of inhibitory activity over a 24 h period (see detailed explanation above in Experimental Protocols).

[5] = T. gondii RH-2 F in HFF, three experiments
[6] = HFF cells, top concentration 320 μM

Q: With `CC(=NN=C1SCC(=O)N1Cc1cccc2ccccc12)c1ccc[cH-]1.[Fe+2].c1cc[cH-]c1` [Compound 30, 3-(Naphthalen-1-ylmethyl)-2-((1-(ferrocen-2-yl)ethylidene)hydrazono)thiazolidin-4-one] as the molecule, how does the pIC50 [1, 5] read?
A: 5.30

Q: And the IC90 [1, 5]?
A: 17 µM

Q: What about the “Inhibition of tachyzoite attachment” value [2] of the same molecule?
A: significantly inhibited attachment

Q: What about the “TD50, median toxicity dose, a measure of cytotoxicity against host cells” value (from here on “TD50, median toxicity dose, a measure”) [3, 6] of the same molecule?
A: ≥320 µM

Q: How did the pIC50 ([1]; Toxoplasma gondii) turn out when `Nc1ccc(S(=O)(=O)Nc2ncccn2)cc1` [Sulfadiazine, reference compound] was run?
A: 4.37

Q: And the IC90 ([1]; Toxoplasma gondii)?
A: 219 µM

Q: And the “Inhibition of intracellular tachyzoite replication” value [4]?
A: robust replication inhibition

Q: What about the “TD50, median toxicity dose, a measure” value ([3]; human) of the same molecule?
A: 281 µM

Q: `CC(=NN=C1SCC(=O)N1Cc1ccccc1F)c1ccc[cH-]1.[Fe+2].c1cc[cH-]c1` [Compound 12, 3-(2-Fluorobenzyl)-2-((1-(ferrocen-2-yl)ethylidene)hydrazono)thiazolidin-4-one] was tested. Which pIC50 [1, 5] did it give?
A: 4.77

Q: What about the IC90 [1, 5] of the same molecule?
A: 64 µM

Q: What about the “Fraction of PVs containing eight or more tachyzoites” value [4] of the same molecule?
A: 10–18%

Q: And the “Inhibition of intracellular tachyzoite replication” value [4]?
A: modest inhibition

Q: What about the “TD50, median toxicity dose, a measure” value [3, 6] of the same molecule?
A: ≥320 µM

Q: How did the pIC50 [1, 5] turn out when `CC(=NN=C1SCC(=O)N1Cc1ccc([N+](=O)[O-])cc1)c1ccc[cH-]1.[Fe+2].c1cc[cH-]c1` [Compound 9, 3-(4-Nitrobenzyl)-2-((1-(ferrocen-2-yl)ethylidene)hydrazono)thiazolidin-4-one] was run?
A: 4.14

Q: What about the IC90 [1, 5] of the same molecule?
A: 292 µM

Q: And the “Inhibition of tachyzoite attachment” value [2]?
A: significantly inhibited attachment

Q: And the “TD50, median toxicity dose, a measure” value [3, 6]?
A: 217 µM

Q: Which results are given for `CC(=NN=C1SCC(=O)N1Cc1ccc(Cl)cc1)c1ccc[cH-]1.[Fe+2].c1cc[cH-]c1` [Compound 27, 3-(4-Chlorobenzyl)-2-((1-(ferrocen-2-yl)ethylidene)hydrazono)thiazolidin-4-one]?
A: pIC50 [1, 5]: 5.00; IC90 [1, 5]: 55 µM; Fraction of PVs containing eight or more tachyzoites [4]: ≤ 1%; Inhibition of intracellular tachyzoite replication [4]: fairly strong inhibition; Inhibition of tachyzoite invasion [2]: notable exceptions; TD50, median toxicity dose, a measure of cytotoxicity against host cells [3, 6]: ≥320 µM

Q: With `CC(=NN=C1SCC(=O)N1Cc1ccccc1[N+](=O)[O-])c1ccc[cH-]1.[Fe+2].c1cc[cH-]c1` [Compound 3, 3-(2-Nitrobenzyl)-2-((1-(ferrocen-2-yl)ethylidene)hydrazono)thiazolidin-4-one] as the molecule, how does the pIC50 [1, 5] read?
A: 4.82

Q: And the IC90 [1, 5]?
A: 78 µM

Q: What about the “Inhibition of tachyzoite invasion” value [2] of the same molecule?
A: notable exceptions

Q: What about the “TD50, median toxicity dose, a measure” value [3, 6] of the same molecule?
A: ≥320 µM

Q: Which results are given for `CC(=NN=C1SCC(=O)N1Cc1ccc(F)cc1)c1ccc[cH-]1.[Fe+2].c1cc[cH-]c1` [Compound 18, 3-(4-Fluorobenzyl)-2-((1-(ferrocen-2-yl)ethylidene)hydrazono)thiazolidin-4-one]?
A: pIC50 [1, 5]: 5.22; IC90 [1, 5]: 16 µM; Fraction of PVs containing eight or more tachyzoites [4]: 10–18%; Inhibition of intracellular tachyzoite replication [4]: modest inhibition; TD50, median toxicity dose, a measure of cytotoxicity against host cells [3, 6]: ≥320 µM

Q: `CC(=NN=C1SCC(=O)N1Cc1cccc(F)c1)c1ccc[cH-]1.[Fe+2].c1cc[cH-]c1` [Compound 15, 3-(3-Fluorobenzyl)-2-((1-(ferrocen-2-yl)ethylidene)hydrazono)thiazolidin-4-one] was tested. Which pIC50 [1, 5] did it give?
A: 5.10

Q: What about the IC90 [1, 5] of the same molecule?
A: 57 µM

Q: And the “Inhibition of tachyzoite attachment” value [2]?
A: significantly inhibited attachment

Q: And the “TD50, median toxicity dose, a measure” value [3, 6]?
A: ≥320 µM
